Data reported in US20100256233A1, “SYSTEMS, METHODS AND COMPOSITIONS FOR REDUCTION OF INJURY FROM RADIATION EXPOSURE” (priority 2007, published 2010).

How the values were obtained:
[1] = tested on: acetylation of histone H3; assay: Western blot of acetylated histones in bone marrow after HDACi administration (HDACi activity); format: in vivo, mouse; conditions: 10 h after first dose and 5 h after second dose, s.c., TSA 0.5 + 0.5 mg/kg, VPA 600 + 300 mg/kg
Description: […] or spleens were harvested at 10 h.
TSA is not selective and is expected to increase acetylation of histones non-specifically. FIG. 1 is a graph showing the acetylation of histone H3 relative to a beta-actin control in test samples. […] Bars indicate individual mice.

BALB/c mice = assay: Lethality / survival after total-body irradiation (TBI); format: in vivo
Description: All studies were performed with prior approval and in accordance with institutional and national standards of animal care. The studies were approved by an Institutional Animal Care and Use Committee (“IACUC”) and were performed in an accredited AAALAC facility. Male BALB/c mice (Charles River Laboratories) 8 to 10 weeks old were allowed to acclimate for 1 week prior to the start of the study. Mice were maintained in environment-controlled (temperature and lighting) animal facilities, provided food and water ad libitum, and randomly assigned to experimental groups.
TBI was delivered using a 185 TBq (5000 Ci) ^137Cs source (Mark I, J. L. Shepherd and Associates, San Fernando, Calif.). Doses ranged from sublethal exposures of 5.5 Gy to lethal exposures of 6.5 Gy and a supralethal exposure of 7.0 Gy. The dose rate was approximately 1 Gy per minute.
Survival was measured in mice after TBI with and without HDACi. Groups of mice were exposed to 6.5 or 7.0 Gy alone or in combination with HDACi, as described above. Survival was defined as the time from irradiation to the time of euthanasia, which occurred when animals had lost 20% or more of their body weight.

## CC(/C=C/C(=O)NO)=C\[C@@H](C)C(=O)c1ccc(N(C)C)cc1 [TSA, trichostatin-A]
[1]
  increase in acetylated form of histone H3 relative to the beta-actin control: three to four-fold increase
BALB/c mice; 7 Gy TBI, TSA 0.5 mg/kg 24 h before TBI (FIG. 5)
  survival: increased survival
BALB/c mice; after TBI
  lethality (time for mice to lose 20% or more of their weight): reduce lethality in a dose-dependent manner
